Measurements taken from patent US20060025390A1, “Treatment of hormone allergy and related symptoms and disorders” (priority 2004, published 2006).

Legend:
[1] = tested on: serum IgE anti-17-α-hydroxyprogesterone antibodies; experiment: ELISA binding of IgE 17-α-hydroxyprogesterone antibodies to different hormones in solid phase; parameters: species or system human; details: for IgE binding (optical density): hormone in solid phase, 405 nm; for IgE % reaction: relative to 17-α-hydroxyprogesterone = 100
Experimental: (§1) The ELISA inhibition method was used to determine specificity and cross-reactivity between different hormones and to ensure the degree of human IgG, IgM and IgE estrogen or progesterone binding to estrogen or progesterone in solid phase. […] 100 μl of sera from three different patients with high IgG, IgM or IgE antibodies against 17-α-hydroxyprogesterone was added to all wells. After shaking and incubation for 1 hr at room temperature, addition of enzyme labeled anti-human IgG, IgM or IgE, repeat of incubation, washing, and addition of substrate, color development was measured at 405 nm. Results were calculated as percentage of anti-17-α-hydroxyprogesterone binding to 17-α-hydroxyprogesterone and other hormones. Also, anti-estrogen binding to estrogen and other hormones in solid phase by progesterone in liquid phase was performed and calculated in a similar manner.
(§2) Human sera containing 17-α-hydroxyprogesterone IgG-, IgM- and IgE-binding antibodies were reacted against progesterone, estrogen, hydrocortisone and cholesterol. In comparison to 100% binding of anti-17-α-hydroxyprogesterone-binding to 17-α-hydroxyprogesterone, the IgG anti-17-α-hydroxyprogesterone-binding to progesterone, estrogen, hydrocortisone and cholesterol was 69-77%, 25-30%, 39-53%, and less than 10% respectively (Table 4). The % binding of serum IgM and IgE anti-17-α-hydroxyprogesterone to 17-1-hydroxyprogesterone, progesterone, estrogen, hydrocortisone and cholesterol was similar to the binding of IgG. This binding of anti-17-α-hydroxyprogesterone to progesterone was the highest, followed by hydrocortisone, then estrogen, to almost no binding with cholesterol. Similar to this, human sera with IgG, IgM and IgE binding antibodies against estrogen were reacted with progesterone, 17-α-hydroxyprogesterone, hydrocortisone and cholesterol, in the presence of estrogen.

[2] = tested on: serum IgE anti-estrogen antibodies; experiment: ELISA binding of IgE estrogen antibodies to different hormones in solid phase; parameters: species or system human; details: for IgE binding (optical density): hormone in solid phase, 405 nm; for IgE % reaction: relative to estrogen = 100
Experimental: as §1, §2

[3] = tested on: serum IgM anti-estrogen antibodies; experiment: ELISA binding of IgM estrogen antibodies to different hormones in solid phase; parameters: species or system human; details: for IgM binding (optical density): hormone in solid phase, 405 nm; for IgM % reaction: relative to estrogen = 100
Experimental: as §1, §2

[4] = tested on: serum IgM anti-17-α-hydroxyprogesterone antibodies; experiment: ELISA binding of IgM 17-α-hydroxyprogesterone antibodies to different hormones in solid phase; parameters: species or system human; details: for IgM binding (optical density): hormone in solid phase, 405 nm; for IgM % reaction: relative to 17-α-hydroxyprogesterone = 100
Experimental: as §1, §2

[5] = tested on: patients experiencing hormone allergy symptoms; experiment: Clinical responses of hormone allergy symptoms to intradermal dilute progesterone (or estrogen); type: in vivo, human; details: for % of Patients who Respond: any relief of symptom; for % Improvement in Responding Patients: average of patients' estimates
Description: Patients experiencing several hormone allergy symptoms experienced relief when administered dilute doses of progesterone either sublingually or intradermally.
The symptoms measured were irritation or pain in the neck, nose, eyes, throat, ear, skin, back, hips, upper extremities and lower extremities, headache, and shortness of breath. […]
Patients were designated as responding patients in Table 1 if they experienced any relief of the indicated symptom. Patients were also asked to estimate the amount of improvement in the symptom, an average of which is
In Table 2 the probability that positive results (i.e. patients responding to treatment) were due to random effects was calculated using standard statistical analysis of patient tests. It was assumed that if the treatment has no effect, there is a 50% chance that a patient will indicate a positive response and a 50% chance that a patient will indicate a negative response. From this assumption, coupled with the actual data, one may calculate the probability that positive responses are due to an actual effect of the treatment and not simply random effects. In general, results with a less than 1% chance of being random are considered highly significant. Results with a less than 5% chance of being random are normally conclusively labeled as nonrandom. Thus, the results observed for most of the symptoms in Table 2 are highly significant, with only the results for ear irritation and pain falling merely in the nonrandom category.
Hormone samples may be prepared in any way suitable for the intended administration route. For administration through intradermal injection, samples may be prepared as they were in the studies of Examples 2 and 3. Specifically, the progesterone was formulated from commercially available injectable progesterone. Each ml of the final formulation contained […] of progesterone and 10% benzyl alcohol as a preservative in sesame oil. 0.1 ml was administered per patient intradermally. Estrogen samples were similarly prepared.

[6] = Back, of 58 patients with symptom (Table 2)
[7] = Ear, of 35 patients with symptom (Table 2)
[8] = Eyes, of 94 patients with symptom (Table 2)
[9] = Headache, of 105 patients with symptom (Table 2)
[10] = Hips, of 26 patients with symptom (Table 2)
[11] = Lower Extremity, 0.5 mg intradermally
[12] = Lower Extremity, of 51 patients with symptom (Table 2)
[13] = Neck, of 146 patients with symptom (Table 2)
[14] = Nose, of 112 patients with symptom (Table 2)
[15] = Shortness of Breath, 0.5 mg intradermally
[16] = Shortness of Breath, of 144 patients with symptom (Table 2)
[17] = Skin, of 35 patients with symptom (Table 2)
[18] = Throat, of 94 patients with symptom (Table 2)
[19] = Upper Extremity, 0.5 mg intradermally
[20] = Upper Extremity, of 63 patients with symptom (Table 2)

## CC(=O)[C@H]1CC[C@H]2[C@@H]3CCC4=CC(=O)CC[C@]4(C)[C@H]3CC[C@]12C [Progesterone, progesterone]
[1]; sample 1
  IgE binding (optical density): 0.94
  IgE % reaction: −65%
[1]; sample 2
  IgE binding (optical density): 1.7
  IgE % reaction: −71%
[1]; sample 3
  IgE binding (optical density): 0.82
  IgE % reaction: −77%
[2]; sample 1
  IgE binding (optical density): 0.21
  IgE % reaction: −26%
[2]; sample 2
  IgE binding (optical density): 0.53
  IgE % reaction: −35%
[2]; sample 3
  IgE binding (optical density): 0.62
  IgE % reaction: −39%
[3]; sample 1
  IgM binding (optical density): 0.26
  IgM % reaction: −29%
[3]; sample 2
  IgM binding (optical density): 0.65
  IgM % reaction: −31%
[3]; sample 3
  IgM binding (optical density): 0.44
  IgM % reaction: −34%
[4]; sample 1
  IgM binding (optical density): 0.8
  IgM % reaction: −61%
[4]; sample 2
  IgM binding (optical density): 0.79
  IgM % reaction: −77%
[4]; sample 3
  IgM binding (optical density): 0.72
  IgM % reaction: −78%
[5]; Back, 0.5 mg intradermally
  % of Patients who Respond: 82%
  % Improvement in Responding Patients: 72%
[5]; Back, 0.5 mg intradermally, of 57 patients (Table 1)
  # of Responding Patients: 47
[5]; [6]
  # of Responding Patients: 48
  # of non-Responding Patients: 10
[5]; Ear, 0.5 mg intradermally
  % of Patients who Respond: 66%
  % Improvement in Responding Patients: 25%
[5]; Ear, 0.5 mg intradermally, of 35 patients (Table 1)
  # of Responding Patients: 23
[5]; [7]
  # of Responding Patients: 23
  # of non-Responding Patients: 12
[5]; Eyes, 0.5 mg intradermally
  % of Patients who Respond: 81%
  % Improvement in Responding Patients: 57%
[5]; Eyes, 0.5 mg intradermally, of 90 patients (Table 1)
  # of Responding Patients: 73
[5]; [8]
  # of Responding Patients: 75
  # of non-Responding Patients: 19
[5]; Headache, 0.5 mg intradermally
  % of Patients who Respond: 82%
  % Improvement in Responding Patients: 69%
[5]; Headache, 0.5 mg intradermally, of 103 patients (Table 1)
  # of Responding Patients: 84
[5]; [9]
  # of Responding Patients: 85
  # of non-Responding Patients: 20
[5]; Hips, 0.5 mg intradermally
  % of Patients who Respond: 92%
  % Improvement in Responding Patients: 79%
[5]; Hips, 0.5 mg intradermally, of 26 patients (Table 1)
  # of Responding Patients: 24
[5]; [10]
  # of Responding Patients: 24
  # of non-Responding Patients: 2
[5]; [11]
  % of Patients who Respond: 79%
  % Improvement in Responding Patients: 76%
[5]; Lower Extremity, 0.5 mg intradermally, of 61 patients (Table 1)
  # of Responding Patients: 48
[5]; [12]
  # of Responding Patients: 43
  # of non-Responding Patients: 8
[5]; Neck, 0.5 mg intradermally
  % of Patients who Respond: 72%
  % Improvement in Responding Patients: 62%
[5]; Neck, 0.5 mg intradermally, of 144 patients (Table 1)
  # of Responding Patients: 104
[5]; [13]
  # of Responding Patients: 106
  # of non-Responding Patients: 40
[5]; Nose, 0.5 mg intradermally
  % of Patients who Respond: 82%
  % Improvement in Responding Patients: 63%
[5]; Nose, 0.5 mg intradermally, of 109 patients (Table 1)
  # of Responding Patients: 89
[5]; [14]
  # of Responding Patients: 92
  # of non-Responding Patients: 20
[5]; [15]
  % of Patients who Respond: 87%
  % Improvement in Responding Patients: 67%
[5]; Shortness of Breath, 0.5 mg intradermally, of 142 patients (Table 1)
  # of Responding Patients: 124
[5]; [16]
  # of Responding Patients: 126
  # of non-Responding Patients: 18
[5]; Skin, 0.5 mg intradermally
  % of Patients who Respond: 79%
  % Improvement in Responding Patients: 74%
[5]; Skin, 0.5 mg intradermally, of 34 patients (Table 1)
  # of Responding Patients: 27
[5]; [17]
  # of Responding Patients: 27
  # of non-Responding Patients: 8
[5]; Throat, 0.5 mg intradermally
  % of Patients who Respond: 76%
  % Improvement in Responding Patients: 64%
[5]; Throat, 0.5 mg intradermally, of 92 patients (Table 1)
  # of Responding Patients: 70
[5]; [18]
  # of Responding Patients: 71
  # of non-Responding Patients: 23
[5]; [19]
  % of Patients who Respond: 80%
  % Improvement in Responding Patients: 75%
[5]; Upper Extremity, 0.5 mg intradermally, of 50 patients (Table 1)
  # of Responding Patients: 40
[5]; [20]
  # of Responding Patients: 50
  # of non-Responding Patients: 13
[5]; dilute doses sublingually or intradermally
  effectiveness in relieving hormone allergy symptoms compared to several other antigens: most effective
